Results as given in patent US20250163018A1, “KEY AMINO ACID BASED ON PROTEIN-DRUG INTERACTIONS INDUCED NEW CRYSTAL FORMS OF TRELAGLIPTIN AND PREPARATION METHODS THEREOF” (GUANGDONG UNIVERSITY OF TECHNOLOGY, priority 2024, published 2025).
Values after ≈ are worked out from the molar mass of the structure shown. Where two headings read alike, the source gives them in different places.

Test: Equilibrium solubility of crystal forms by UV-Vis spectrophotometry (279 nm)
Type: physicochemical
Excerpt: The specific operation was as follows: take samples of five new and original crystalline forms after reaching the dissolution equilibrium, filter them with 0.22 μm filter membrane, take appropriate amount of filtrate, according to the UV-Vis spectrophotometric method (Chinese Pharmacopoeia 2020 edition), determine the absorbance value at the wavelength of 279 nm, and substitute them into the standard curve to obtain the solubility of five new and original crystalline forms, as shown in Table 1.

[1] = pH = 7.0 aqueous solution (deionized water)

Structure (SMILES)	solubility (pH = 1.2 hydrochloric acid) [mg/mL]	solubility (pH = 6.8 PBS) [mg/mL]	solubility [1] [mg/mL]	solubility (pH = 7.4 PBS) [mg/mL]	solubility (PBS, pH 6.8, aqueous buffer, thermodynamic from solid, pH = 6.8 PBS, read-out: solubility) [mg/mL]	solubility (PBS, pH 7.4, aqueous buffer, thermodynamic from solid, pH = 7.4 PBS, read-out: solubility) [mg/mL]	solubility (deionized water, pH 7, water, thermodynamic from solid, pH = 7.0 aqueous solution (deionized water), read-out: solubility) [mg/mL]	solubility (hydrochloric acid solution, pH 1.2, simulated gastric fluid, thermodynamic from solid, pH = 1.2 hydrochloric acid, read-out: solubility) [mg/mL]
Cn1c(=O)cc(N2CCC[C@@H](N)C2)n(Cc2cc(F)ccc2C#N)c1=O [TRE-V, 2-[[6-[(3R)-3-aminopiperidin-1-yl]-3-methyl-2,4-dioxopyrimidin-1-yl]methyl]-4-fluorobenzonitrile]	76.01 (≈ 213 mM)	36.12 (≈ 101 mM)	12.64 (≈ 35.4 mM)	37.51 (≈ 105 mM)	–	–	–	–
Cn1c(=O)cc(N2CCC[C@@H](N)C2)n(Cc2cc(F)ccc2C#N)c1=O [TRE-II, 2-[[6-[(3R)-3-aminopiperidin-1-yl]-3-methyl-2,4-dioxopyrimidin-1-yl]methyl]-4-fluorobenzonitrile]	45.91 (≈ 128 mM)	40.01 (≈ 112 mM)	15.98 (≈ 44.7 mM)	37.32 (≈ 104 mM)	–	–	–	–
Cn1c(=O)cc(N2CCC[C@@H](N)C2)n(Cc2cc(F)ccc2C#N)c1=O [TRE-III, 2-[[6-[(3R)-3-aminopiperidin-1-yl]-3-methyl-2,4-dioxopyrimidin-1-yl]methyl]-4-fluorobenzonitrile]	39.76 (≈ 111 mM)	35.90 (≈ 100 mM)	14.93 (≈ 41.8 mM)	28.26 (≈ 79.1 mM)	–	–	–	–
Cn1c(=O)cc(N2CCC[C@@H](N)C2)n(Cc2cc(F)ccc2C#N)c1=O [TRE-I, 2-[[6-[(3R)-3-aminopiperidin-1-yl]-3-methyl-2,4-dioxopyrimidin-1-yl]methyl]-4-fluorobenzonitrile]	–	–	–	–	34.2 (≈ 95.8 mM)	28.6 (≈ 80 mM)	13.2 (≈ 36.9 mM)	54 (≈ 151 mM)
Cn1c(=O)cc(N2CCC[C@@H](N)C2)n(Cc2cc(F)ccc2C#N)c1=O [original crystal form, 2-[[6-[(3R)-3-aminopiperidin-1-yl]-3-methyl-2,4-dioxopyrimidin-1-yl]methyl]-4-fluorobenzonitrile, reference compound]	–	15.46 (≈ 43.3 mM)	3.40 (≈ 9.51 mM)	12.94 (≈ 36.2 mM)	–	–	–	–
Cn1c(=O)cc(N2CCC[C@@H](N)C2)n(Cc2cc(F)ccc2C#N)c1=O [TRE-IV, 2-[[6-[(3R)-3-aminopiperidin-1-yl]-3-methyl-2,4-dioxopyrimidin-1-yl]methyl]-4-fluorobenzonitrile]	73.49 (≈ 206 mM)	35.05 (≈ 98.1 mM)	19.56 (≈ 54.7 mM)	35.94 (≈ 101 mM)	–	–	–	–
